Measured values reported in US9469645B2, “Compounds and compositions for the treatment of parasitic diseases” (Novartis AG, priority 2009, dated 2016).
Where two headings read alike, the source gives them in different places.

Experiments:
[1] = test system: W2 strain; assay: parasite proliferation assay in infected red blood cells (SYBR Green I), W2 strain; assay type: cell-based, Plasmodium falciparum
Source text: (§1) Compounds of the invention can be assayed to measure their capacity to inhibit proliferation of parasitemia in infected red blood cells. The proliferation is quantified by the addition of SYBR Green I (INVITROGEN)® dye which has a high affinity for double stranded DNA.

[2] = test system: 3D7 P. falciparum strain; assay: parasite proliferation assay in infected red blood cells (SYBR Green I); assay type: cell-based, Plasmodium falciparum; conditions: 3D7 strain, read-out: EC50 3D7 strain
Procedure, shortened: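 P. falciparum 3D7 grown in O+ human erythrocytes to 3–8% parasitemia and exposed to compounds. Proliferation read as the increase in parasite DNA. Detection used SYBR Green I in saponin/triton-X/EDTA lysis buffer, with overnight lysis at room temperature.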

[3] = test system: NF54; assay: parasite proliferation assay in infected red blood cells (SYBR Green I), NF54 strain; assay type: cell-based; conditions: Plasmodium falciparum, 3D7 / NF54, Erythrocyte; cell marked (NF54): NF54 strain instead of 3D7; read-out: EC50 (NF54), printed in the 3D7 strain column
Source text: as §1

[4] = test system: W2 strain; assay: parasite proliferation assay in infected red blood cells (SYBR Green I), W2 strain; assay type: cell-based; conditions: Erythrocyte
Source text: as §1

[5] = test system: Trypanosoma brucei Lister 427 strain; assay: Trypanosoma brucei proliferation assay (Cell Titer Glo); assay type: cell-based; conditions: Lister 427 bloodstream form, 48 hours, read-out: EC50, proliferation of T. brucei
Source text: Compounds of the invention can be assayed to measure their capacity to inhibit proliferation of kinetoplastid parasite Trypanosoma brucei. The proliferation is quantified by the addition of Cell Titer Glo (Promega®) a luminescent cell viability assay that measures the number of viable cells in culture based on the quantification of cellular ATP amount, which is an indicator of metabolically active cells.
The following assay illustrates the invention without in any way limiting the scope of the invention. This parasite proliferation assay measures the increase in parasite growth using an assay that measures ATP activity, Cell Titer Glo®.
Trypanosoma brucei Lister 427 strain is grown in HMI-9 Trypanosome media for T. brucei bloodstream form. 30 μl of HMI-9 media is dispensed into 384 well assay plates. 200 nl of compounds of the invention (in DMSO), including anti-trypanosome controls (Pentamidine and suramin), are then transferred into the assay plates, as well as DMSO alone to serve as a negative control for inhibition. Then 25 μl of a suspension of T. brucei culture in HMI-9 media is dispensed into the assay plates. The final concentration of parasites in culture corresponds to 1.7% of 0.5 uM ATP activity with Cell Titer Glo® in HMI-9 media. […] The plates are then read for luminescence.

[6] = target: cannabinoid receptor 1 (CB1) (Homo sapiens, UniProt P21554); assay: cannabinoid receptor 1 (CB1) IC50; assay type: binding; conditions: read-out: IC50 against CB1
Chain of cannabinoid receptor 1 (CB1) (P21554 whole entry, species assumed): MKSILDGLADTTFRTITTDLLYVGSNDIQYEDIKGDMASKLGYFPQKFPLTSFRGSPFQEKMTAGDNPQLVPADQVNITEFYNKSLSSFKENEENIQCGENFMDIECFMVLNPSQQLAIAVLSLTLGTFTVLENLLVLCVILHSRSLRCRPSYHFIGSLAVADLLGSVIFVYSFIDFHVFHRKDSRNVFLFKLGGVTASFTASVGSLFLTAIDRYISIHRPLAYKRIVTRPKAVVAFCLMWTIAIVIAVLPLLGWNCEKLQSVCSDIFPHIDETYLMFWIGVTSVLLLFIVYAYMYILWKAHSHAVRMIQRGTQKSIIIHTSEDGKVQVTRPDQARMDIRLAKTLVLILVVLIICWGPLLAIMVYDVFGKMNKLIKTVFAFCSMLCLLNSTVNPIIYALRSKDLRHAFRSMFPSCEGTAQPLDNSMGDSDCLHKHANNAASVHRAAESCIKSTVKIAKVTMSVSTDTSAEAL

[7] = target: mitogen-activated protein kinase-activated protein kinase 2 (MapKap2 or MK-2) (Homo sapiens, UniProt P49137); assay: MK-2 enzyme inhibition, single point concentration; assay type: biochemical
Chain of mitogen-activated protein kinase-activated protein kinase 2 (MapKap2 or MK-2) (P49137 whole entry): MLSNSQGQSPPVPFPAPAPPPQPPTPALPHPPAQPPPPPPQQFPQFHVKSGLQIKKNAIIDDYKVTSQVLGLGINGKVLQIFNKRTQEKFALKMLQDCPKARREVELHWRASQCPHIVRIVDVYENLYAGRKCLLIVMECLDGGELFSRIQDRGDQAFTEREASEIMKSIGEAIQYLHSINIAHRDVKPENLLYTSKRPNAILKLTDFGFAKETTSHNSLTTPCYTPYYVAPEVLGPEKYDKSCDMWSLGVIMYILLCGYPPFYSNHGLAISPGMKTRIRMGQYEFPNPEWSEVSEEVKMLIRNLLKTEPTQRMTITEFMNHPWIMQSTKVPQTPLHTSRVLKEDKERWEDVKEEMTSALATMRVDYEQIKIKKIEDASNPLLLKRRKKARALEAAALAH

[8] = Plasmodium falciparum, Erythrocyte
[9] = Plasmodium falciparum, 3D7, Erythrocyte

Molecule	EC50 [1, 8] [nM]	EC50 [2, 9] [nM]	also measured
CC1(C)Cn2c(nc(-c3ccc(F)cc3)c2Nc2ccc(Cl)c(F)c2)CN1C(=O)CN [Compound 576]	234	200	–
CC1(C)Cn2c(nc(-c3ccc(F)cc3)c2Nc2ccc(C#N)c(F)c2)CN1C(=O)CN [Compound 577]	611	630	–
Cc1ccc(Nc2c(-c3ccc(F)cc3)nc3n2CC(C)(C)NC3)cc1 [Compound 578]	339	250	–
CC1(C)Cn2c(nc(-c3ccc(F)cc3)c2Nc2ccc(F)cc2)CN1 [Compound 579]	146	180	–
CC1(C)Cn2c(nc(-c3ccc(F)cc3)c2Nc2ccc(F)c(F)c2)CN1 [Compound 580]	169	150	–
CC1(C)Cn2c(nc(-c3ccc(F)cc3)c2Nc2ccc(C#N)c(F)c2)CN1 [Compound 581]	668	650	–
COc1ccc(CN2Cc3nc(-c4cccc(F)c4)c(Nc4ccc(C)cc4)n3C(C)(C)C2)cc1 [Compound 582]	5920	5560	–
CC(C)(N)C(=O)N1CCn2c(nc(-c3ccc(F)cc3)c2Nc2ccc(F)cc2)C1(C)C [Compound 583]	9	10	–
CC(C)(N)C(=O)N1CCn2c(nc(-c3ccc(F)cc3)c2Nc2ccc(Cl)cc2)C1(C)C [Compound 584]	21	20	–
CC(C)(N)C(=O)N1CCn2c(nc(-c3ccc(F)cc3)c2Nc2ccc(F)c(F)c2)C1(C)C [Compound 585]	7	10	–
CC(C)(N)C(=O)N1CCn2c(nc(-c3ccc(F)cc3)c2Nc2ccc(F)c(Cl)c2)C1(C)C [Compound 586]	7	10	–
CC(C)(N)C(=O)N1CCn2c(nc(-c3ccc(F)cc3)c2Nc2ccc(Cl)c(Cl)c2)C1(C)C [Compound 587]	12	10	–
Cc1cc(Nc2c(-c3ccc(F)cc3)nc3n2CCN(C(=O)C(C)(C)N)C3(C)C)ccc1F [Compound 588]	4	10	–
Cc1cc(Nc2c(-c3ccc(F)cc3)nc3n2CCN(C(=O)C(C)(C)N)C3(C)C)ccc1Cl [Compound 589]	6	10	–
Cc1ccc(Nc2c(-c3ccc(F)cc3)nc3n2CCN(C(=O)C(C)(C)N)C3(C)C)cc1C#N [Compound 590]	18	30	–
CC(C)(N)C(=O)N1CCn2c(nc(-c3ccc(F)cc3)c2Nc2ccc(C#N)c(Cl)c2)C1(C)C [Compound 591]	46	60	–
Cc1ccc(Nc2c(-c3cccc(F)c3)nc3n2C(C)(C)CN(C(=O)[C@@H](O)C(C)C)C3)cc1 [Compound 592]	5260	6010	–

Molecule	EC50 [1, 8] [nM]	EC50 [2, 9] [nM]	also measured
Cc1ccc(Nc2c(-c3cccc(F)c3)nc3n2C(C)(C)CN(C(=O)C(C)(C)N)C3)cc1 [Compound 593]	3940	5060	–
Cc1ccc(Nc2c(-c3cccc(F)c3)nc3n2C(C)(C)CN(C(=O)CN)C3)cc1 [Compound 594]	32	20	–
CC(C)[C@H]1c2nc(-c3ccc(F)cc3)c(Nc3ccc(Cl)c(F)c3)n2CCN1C(=O)CN [Compound 595]	485	340	–
C[C@@H]1c2nc(-c3ccc(F)cc3)c(Nc3ccc(Cl)c(F)c3)n2CCN1C(=O)CN [Compound 596]	29	30	–
C[C@H]1c2nc(-c3ccc(F)cc3)c(Nc3ccc(Cl)c(F)c3)n2CCN1C(=O)CN [Compound 597]	24	30	–
CC1(C)c2nc(-c3ccc(F)cc3)c(Nc3ccc(F)cc3)n2CC(=O)N1CCN [Compound 687, 7-(2-aminoethyl)-2-(4-fluorophenyl)-3-(4-fluorophenylamino)-8,8-dimethyl-7,8-dihydroimidazo[1,2-a]pyrazin-6(5H)-one]	–	–	EC50 [3]: 3420 nM; EC50 ([4]; Plasmodium falciparum): 3350 nM
CC1(C)c2nc(-c3ccc(F)cc3)c(Nc3ccc(F)cc3)n2CC(=O)N1CCO [Compound 688]	–	–	EC50 [3]: 106 nM; EC50 ([4]; Plasmodium falciparum): 134 nM
CC1(C)c2nc(-c3ccc(F)cc3)c(CC3CCCCC3)n2CCN1C(=O)CN [Compound 699]	–	–	EC50 [3]: 678 nM
CC1(C)c2nc(-c3ccc(F)cc3)c(Oc3ccc(Cl)cc3)n2CCN1C(=O)CN [Compound 710]	–	–	EC50 [3]: 28 nM
CC1(C)c2nc(-c3ccc(F)cc3)c(Oc3ccc(F)c(F)c3)n2CCN1C(=O)CN [Compound 711]	–	–	EC50 [3]: 34 nM
Cc1cc(Oc2c(-c3ccc(F)cc3)nc3n2CCN(C(=O)CN)C3(C)C)ccc1F [Compound 712]	–	–	EC50 [3]: 19 nM
Cc1ccc(S(=O)(=O)c2c(-c3ccc(F)cc3)nc3n2CCN(C(=O)CN)C3(C)C)cc1 [Compound 725]	–	–	EC50 [3]: 5210 nM
CC1(C)c2nc(-c3ccc(F)cc3)c(Nc3ccc(F)cc3)n2CCN1C(=O)CNC(=O)CCC1=[N+]2C(=Cc3ccc(-c4ccccc4)n3[B-]2(F)F)C=C1 [Compound 731]	–	–	EC50 [3]: 2270 nM; EC50 ([4]; Plasmodium falciparum): 5610 nM
COc1ccc(-c2ccc3n2[B-](F)(F)[N+]2=C(C)C(CCC(=O)NCCCCCC(=O)NCC(=O)N4CCn5c(nc(-c6ccc(F)cc6)c5Nc5ccc(F)cc5)C4(C)C)=C(C)C2=C3)cc1 [Compound 732]	–	–	EC50 [3]: 1220 nM; EC50 ([4]; Plasmodium falciparum): 1440 nM
CC(C)(N)C(=O)N1CCn2c(nc(-c3ccc(F)cc3)c2Nc2ccc(F)c(F)c2)C1 [Example 29, 2-amino-1-(3-(3,4-difluorophenylamino)-2-(4-fluorophenyl)-5,6-dihydroimidazo[1,2-a]pyrazin-7(8H)-yl)-2-methylpropan-1-one]	–	30	EC50 [5]: 7 µM; EC50 [4]: 36 nM; IC50 [6]: > 30 µM; inhibition of MK-2 [7]: 15%
CC1(C)c2nc(-c3ccc(F)cc3)c(Nc3ccc(F)cc3)n2CCN1C(=O)CN [example 412, 2-amino-1-(2-(4-fluorophenyl)-3-(4-fluorophenylamino)-8,8-dimethyl-5,6-dihydroimidazo[1,2-a]pyrazin-7(8H)-yl)ethanone]	6	10	EC50 [5]: 10 µM; IC50 [6]: 24 µM; inhibition of MK-2 [7]: 7%
tert-butyl 1-(2-(4-fluorophenyl)-5,6-dihydroimidazo[1,2-a]pyrazin-7(8H)-yl)-2-methyl-1-oxopropan-2-ylcarbamate [Compound 530]	–	–	EC50 ([1]; W2 strain): 6420 nM; EC50 [2]: 1230 nM
